From ChEMBL document CHEMBL3860108, “Substituent Effects on Drug-Receptor H-bond Interactions: Correlations Useful for the Design of Kinase Inhibitors” (J Med Chem, 2016)

target: T1, Serine/threonine-protein kinase TNNI3K (Homo sapiens, UniProt Q59H18); assay: Displacement of 5-({[2-({[3-({4-[(5-hydroxy-2-methylphenyl)amino]-2-pyrimidinyl}amino)phenyl]carbonyl}amino)-ethyl]amino}carbonyl)-2-(6-hydroxy-3-oxo-3H-xanthen-9-yl)benzoic acid from His6-MBP-TEV-full length human TNNI3K expressed in Baculovirus expression system after 60 mins by fluorescence polarization assay
T1 sequence (Q59H18 whole entry): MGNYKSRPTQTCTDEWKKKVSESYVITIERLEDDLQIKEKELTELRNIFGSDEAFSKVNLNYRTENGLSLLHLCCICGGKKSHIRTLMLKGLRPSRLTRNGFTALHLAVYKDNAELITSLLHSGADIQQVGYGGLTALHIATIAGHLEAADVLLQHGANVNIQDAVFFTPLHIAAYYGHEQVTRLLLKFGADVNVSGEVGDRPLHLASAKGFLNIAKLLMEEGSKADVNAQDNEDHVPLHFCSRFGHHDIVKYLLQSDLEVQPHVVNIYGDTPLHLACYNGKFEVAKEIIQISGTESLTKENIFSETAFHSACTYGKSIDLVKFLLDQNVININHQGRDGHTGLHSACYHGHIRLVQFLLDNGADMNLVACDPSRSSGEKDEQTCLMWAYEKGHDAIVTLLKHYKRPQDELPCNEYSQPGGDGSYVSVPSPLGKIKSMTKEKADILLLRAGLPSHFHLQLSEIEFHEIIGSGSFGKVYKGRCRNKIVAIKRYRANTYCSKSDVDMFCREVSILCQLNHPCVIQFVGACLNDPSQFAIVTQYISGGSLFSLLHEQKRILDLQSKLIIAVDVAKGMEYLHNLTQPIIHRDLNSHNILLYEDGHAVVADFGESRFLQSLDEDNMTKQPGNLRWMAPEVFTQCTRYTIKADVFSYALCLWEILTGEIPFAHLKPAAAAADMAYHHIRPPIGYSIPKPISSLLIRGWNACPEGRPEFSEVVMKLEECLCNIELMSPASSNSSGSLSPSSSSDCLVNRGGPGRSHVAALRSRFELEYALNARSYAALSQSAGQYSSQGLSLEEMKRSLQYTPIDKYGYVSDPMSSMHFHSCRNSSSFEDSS

**Q.** Which IC50 does the source give for `CNS(=O)(=O)c1ccc(Cl)c(Nc2cc(Nc3ccc(Cl)cc3)ncn2)c1` here?
**A.** Its IC50 is 130 nM.

**Q.** Which IC50 does the source give for `CNS(=O)(=O)c1ccc(N(C)C)c(Nc2ncnc3[nH]cnc23)c1` here?
**A.** The IC50 was 16 nM.

**Q.** With `CNS(=O)(=O)c1ccc(SC)c(Nc2cc(Nc3ccc(Cl)cc3)ncn2)c1` as the compound, how does the IC50 read?
**A.** The IC50 was 400 nM.

**Q.** `CNS(=O)(=O)c1ccc(N2CCCCC2)c(Nc2ncnc3[nH]ccc23)c1` was tested. Which IC50 did it give?
**A.** The IC50 was 13 nM.

**Q.** How did the IC50 turn out when `CNS(=O)(=O)c1ccc(N(C)CC(F)(F)F)c(Nc2cc(Nc3ccc(Cl)cc3)ncn2)c1` was run?
**A.** Its IC50 is 40 nM.

**Q.** Which IC50 does the source give for `CNS(=O)(=O)c1ccc(N2CCC[C@@H]2C(F)(F)F)c(Nc2cc(Nc3ccc(Cl)cc3)ncn2)c1` here?
**A.** Its IC50 is 63 nM.

**Q.** How did the IC50 turn out when `CNS(=O)(=O)c1ccc(N(C)CC(F)(F)F)c(Nc2ncnc3[nH]ccc23)c1` was run?
**A.** The IC50 was 10 nM.

**Q.** How did the IC50 turn out when `CNS(=O)(=O)c1ccc(O)c(Nc2cc(Nc3ccc(Cl)cc3)ncn2)c1` was run?
**A.** Its IC50 is 160 nM.

**Q.** For `CNS(=O)(=O)c1ccc(O)c(Nc2ncnc3[nH]ccc23)c1`, which IC50 is on record?
**A.** The IC50 was 40 nM.

**Q.** For `CCCNc1ccc(S(=O)(=O)NC)cc1Nc1ncnc2[nH]ccc12`, which IC50 is on record?
**A.** The IC50 was 2500 nM.

**Q.** Which IC50 does the source give for `CNS(=O)(=O)c1ccc(OC(F)(F)F)c(Nc2ncnc3[nH]ccc23)c1` here?
**A.** The IC50 was 50 nM.

**Q.** How did the IC50 turn out when `CNS(=O)(=O)c1ccc(-c2ccccc2)c(Nc2ncnc3[nH]ccc23)c1` was run?
**A.** Its IC50 is 200 nM.

**Q.** For `CNS(=O)(=O)c1ccc(N2C(C)CCC2C)c(Nc2cc(Nc3ccc(Cl)cc3)ncn2)c1` (stereo not given), which IC50 is on record?
**A.** Its IC50 is 80 nM.

**Q.** With `CNS(=O)(=O)c1ccc(N2CCCC2)c(Nc2ncnc3[nH]ccc23)c1` as the compound, how does the IC50 read?
**A.** The IC50 was 320 nM.

**Q.** How did the IC50 turn out when `CNS(=O)(=O)c1ccc(OCC(F)(F)F)c(Nc2ncnc3[nH]ccc23)c1` was run?
**A.** The IC50 was 16 nM.

**Q.** How did the IC50 turn out when `CNS(=O)(=O)c1ccc(N2CCCC2C)c(Nc2cc(Nc3ccc(Cl)cc3)ncn2)c1` (stereo not given) was run?
**A.** The IC50 was 250 nM.

**Q.** Which IC50 does the source give for `CNS(=O)(=O)c1ccc(N2CCCC(F)(F)C2)c(Nc2cc(Nc3ccc(Cl)cc3)ncn2)c1` here?
**A.** Its IC50 is 40 nM.

**Q.** Which IC50 does the source give for `CNS(=O)(=O)c1ccc(N2CCCC2)c(Nc2cc(Nc3ccc(Cl)cc3)ncn2)c1` here?
**A.** Its IC50 is 1300 nM.

**Q.** Which IC50 does the source give for `CCOc1ccc(S(=O)(=O)NC)cc1Nc1ncnc2[nH]ccc12` here?
**A.** The IC50 was 32 nM.

**Q.** `CCNc1ccc(S(=O)(=O)NC)cc1Nc1ncnc2[nH]ccc12` was tested. Which IC50 did it give?
**A.** The IC50 was 2500 nM.

**Q.** For `CNS(=O)(=O)c1ccc(N(C)C)c(Nc2ncnc3ccc(Cl)cc23)c1`, which IC50 is on record?
**A.** Its IC50 is 400 nM.

**Q.** How did the IC50 turn out when `CNS(=O)(=O)c1ccc(OC)c(Nc2ncnc3[nH]ccc23)c1` was run?
**A.** Its IC50 is 100 nM.

**Q.** How did the IC50 turn out when `CNS(=O)(=O)c1ccc(N2CCC(F)(F)C2)c(Nc2cc(Nc3ccc(Cl)cc3)ncn2)c1` was run?
**A.** The IC50 was 1000 nM.

**Q.** Which IC50 does the source give for `CNS(=O)(=O)c1ccc(N2CCCC2C)c(Nc2ncnc3[nH]ccc23)c1` (stereo not given) here?
**A.** Its IC50 is 130 nM.

**Q.** Which IC50 does the source give for `CCN(C)c1ccc(S(=O)(=O)NC)cc1Nc1ncnc2[nH]ccc12` here?
**A.** The IC50 was 32 nM.

**Q.** `CNS(=O)(=O)c1ccc(N(C)C)c(Nc2ncnc3[nH]cc(-c4ccco4)c23)c1` was tested. Which IC50 did it give?
**A.** The IC50 was less than 10 nM.

**Q.** With `CNS(=O)(=O)c1ccc(N2CCCC(F)(F)C2)c(Nc2ncnc3[nH]ccc23)c1` as the compound, how does the IC50 read?
**A.** The IC50 was less than 10 nM.

**Q.** `CNS(=O)(=O)c1cccc(Nc2cc(Nc3ccc(Cl)cc3)ncn2)c1` was tested. Which IC50 did it give?
**A.** The IC50 was 80 nM.

**Q.** For `CNS(=O)(=O)c1ccc(SC)c(Nc2ncnc3[nH]ccc23)c1`, which IC50 is on record?
**A.** Its IC50 is 130 nM.

**Q.** Which IC50 does the source give for `CNS(=O)(=O)c1ccc(F)c(Nc2cc(Nc3ccc(Cl)cc3)ncn2)c1` here?
**A.** Its IC50 is 200 nM.

**Q.** `CCNc1ccc(S(=O)(=O)NC)cc1Nc1cc(Nc2ccc(Cl)cc2)ncn1` was tested. Which IC50 did it give?
**A.** Its IC50 is 3200 nM.

**Q.** How did the IC50 turn out when `CNS(=O)(=O)c1ccc(OCC(F)(F)F)c(Nc2cc(Nc3ccc(Cl)cc3)ncn2)c1` was run?
**A.** The IC50 was 25 nM.

**Q.** Which IC50 does the source give for `CNS(=O)(=O)c1ccc(OC(F)(F)F)c(Nc2cc(Nc3ccc(Cl)cc3)ncn2)c1` here?
**A.** Its IC50 is 32 nM.

**Q.** With `CNS(=O)(=O)c1ccc(OC)c(Nc2cc(Nc3ccc(Cl)cc3)ncn2)c1` as the compound, how does the IC50 read?
**A.** Its IC50 is 50 nM.

**Q.** With `CCCNc1ccc(S(=O)(=O)NC)cc1Nc1cc(Nc2ccc(Cl)cc2)ncn1` as the compound, how does the IC50 read?
**A.** Its IC50 is 1600 nM.

**Q.** Which IC50 does the source give for `CNS(=O)(=O)c1ccc(N(C)C)c(Nc2ncnc(Nc3ccc(Cl)cc3)n2)c1` here?
**A.** The IC50 was 10 nM.

**Q.** `CNS(=O)(=O)c1ccc(F)c(Nc2ncnc3[nH]ccc23)c1` was tested. Which IC50 did it give?
**A.** The IC50 was 250 nM.

**Q.** `CNS(=O)(=O)c1ccc(N(C)C)c(Nc2ncnc3ncccc23)c1` was tested. Which IC50 did it give?
**A.** Its IC50 is 5000 nM.

**Q.** With `CNc1ccc(S(=O)(=O)NC)cc1Nc1cc(Nc2ccc(Cl)cc2)ncn1` as the compound, how does the IC50 read?
**A.** Its IC50 is 2500 nM.

**Q.** How did the IC50 turn out when `CNS(=O)(=O)c1ccc(N)c(Nc2cc(Nc3ccc(Cl)cc3)ncn2)c1` was run?
**A.** Its IC50 is 800 nM.

**Q.** With `CNS(=O)(=O)c1ccc(N2C(C)CCC2C)c(Nc2ncnc3[nH]ccc23)c1` (stereo not given) as the compound, how does the IC50 read?
**A.** Its IC50 is 20 nM.

**Q.** How did the IC50 turn out when `CCN(C)c1ccc(S(=O)(=O)NC)cc1Nc1cc(Nc2ccc(Cl)cc2)ncn1` was run?
**A.** Its IC50 is 63 nM.

**Q.** How did the IC50 turn out when `CCOc1ccc(S(=O)(=O)NC)cc1Nc1cc(Nc2ccc(Cl)cc2)ncn1` was run?
**A.** The IC50 was 50 nM.

**Q.** Which IC50 does the source give for `CNS(=O)(=O)c1ccc(N(C)C)c(Nc2cc(Nc3ccc(Cl)cc3)ncn2)c1` here?
**A.** Its IC50 is 80 nM.

**Q.** For `CNS(=O)(=O)c1ccc(N(C)C)c(Nc2ncnc3ccc([N+](=O)[O-])cc23)c1`, which IC50 is on record?
**A.** The IC50 was 2500 nM.

**Q.** For `CNS(=O)(=O)c1ccc(N2CCC(F)(F)C2)c(Nc2ncnc3[nH]ccc23)c1`, which IC50 is on record?
**A.** The IC50 was 130 nM.

**Q.** `CNS(=O)(=O)c1ccc(N(C)C)c(Nc2ncnc3[nH]c4ccccc4c23)c1` was tested. Which IC50 did it give?
**A.** The IC50 was 50 nM.

**Q.** Which IC50 does the source give for `CNS(=O)(=O)c1ccc(C)c(Nc2cc(Nc3ccc(Cl)cc3)ncn2)c1` here?
**A.** Its IC50 is 160 nM.

target: Serine/threonine-protein kinase B-raf (Homo sapiens, UniProt P15056, V600E); assay: Inhibition of His6-tagged full length BRAF V600E mutant (2 to 766 residues) (unknown origin) expressed in Baculovirus expression system by BRAMA method
Sequence (P15056 2-766 V600E limits assumed): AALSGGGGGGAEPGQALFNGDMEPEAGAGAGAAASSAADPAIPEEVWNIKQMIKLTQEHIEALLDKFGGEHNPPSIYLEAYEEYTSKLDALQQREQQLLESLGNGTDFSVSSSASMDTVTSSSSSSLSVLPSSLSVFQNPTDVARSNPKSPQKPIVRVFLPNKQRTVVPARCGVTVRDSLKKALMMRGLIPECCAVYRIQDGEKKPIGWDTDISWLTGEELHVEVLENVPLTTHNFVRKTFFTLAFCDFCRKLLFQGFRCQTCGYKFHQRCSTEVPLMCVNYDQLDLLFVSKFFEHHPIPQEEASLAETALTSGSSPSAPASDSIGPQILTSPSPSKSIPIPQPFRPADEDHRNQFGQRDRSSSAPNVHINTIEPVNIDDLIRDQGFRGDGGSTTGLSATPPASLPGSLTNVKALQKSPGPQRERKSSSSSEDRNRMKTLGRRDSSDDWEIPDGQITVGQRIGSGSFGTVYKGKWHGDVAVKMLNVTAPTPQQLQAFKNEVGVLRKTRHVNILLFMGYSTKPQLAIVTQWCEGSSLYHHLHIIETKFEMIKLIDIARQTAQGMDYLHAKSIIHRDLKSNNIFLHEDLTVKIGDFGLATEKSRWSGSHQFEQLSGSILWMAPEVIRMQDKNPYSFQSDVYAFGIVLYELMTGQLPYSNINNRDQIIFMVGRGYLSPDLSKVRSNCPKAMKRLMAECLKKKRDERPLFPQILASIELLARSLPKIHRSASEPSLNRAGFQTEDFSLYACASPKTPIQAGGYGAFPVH

**Q.** For `CNS(=O)(=O)c1ccc(N(C)C)c(Nc2ncnc3ccc(Cl)cc23)c1`, which IC50 is on record?
**A.** The IC50 was 400 nM.

**Q.** With `CNS(=O)(=O)c1ccc(N(C)C)c(Nc2ncnc3ccc([N+](=O)[O-])cc23)c1` as the compound, how does the IC50 read?
**A.** Its IC50 is 6300 nM.
